Reference: publication PMC4389443 (Respiratory Research, 2015)
Entries after “also recorded” stand apart in the source; their conditions may differ.

Legend:
BALB/c mice [1] = assay: Klebsiella pneumoniae lung infection
BALB/c mice [2] = assay: LPS airway inflammation, 6 hour time point; conditions: 6 hours after LPS
Swiss mice = assay: LPS airway inflammation, 24 hour time point; assay type: in vivo, mouse; conditions: 24 hours after LPS
Protocol: Given the short half-life of PXS-4728, a second dose was administered to ensure that newly synthesized SSAO would also be blocked.

Plasma stability [3] = assay type: in vitro ADME; conditions: human plasma, 1 hour incubation
HepG2 cells = assay: Cell toxicity in HepG2 cells; assay type: cell-based; conditions: highest concentration tested 100 μM
[4] = target: T1, VAP-1/SSAO in gonadal fat tissue homogenate (Canis lupus familiaris, UniProt A0A8I3MYY3); assay: SSAO activity, gonadal fat tissue homogenate; assay type: biochemical; conditions: dog
T1 sequence (A0A8I3MYY3 1-763): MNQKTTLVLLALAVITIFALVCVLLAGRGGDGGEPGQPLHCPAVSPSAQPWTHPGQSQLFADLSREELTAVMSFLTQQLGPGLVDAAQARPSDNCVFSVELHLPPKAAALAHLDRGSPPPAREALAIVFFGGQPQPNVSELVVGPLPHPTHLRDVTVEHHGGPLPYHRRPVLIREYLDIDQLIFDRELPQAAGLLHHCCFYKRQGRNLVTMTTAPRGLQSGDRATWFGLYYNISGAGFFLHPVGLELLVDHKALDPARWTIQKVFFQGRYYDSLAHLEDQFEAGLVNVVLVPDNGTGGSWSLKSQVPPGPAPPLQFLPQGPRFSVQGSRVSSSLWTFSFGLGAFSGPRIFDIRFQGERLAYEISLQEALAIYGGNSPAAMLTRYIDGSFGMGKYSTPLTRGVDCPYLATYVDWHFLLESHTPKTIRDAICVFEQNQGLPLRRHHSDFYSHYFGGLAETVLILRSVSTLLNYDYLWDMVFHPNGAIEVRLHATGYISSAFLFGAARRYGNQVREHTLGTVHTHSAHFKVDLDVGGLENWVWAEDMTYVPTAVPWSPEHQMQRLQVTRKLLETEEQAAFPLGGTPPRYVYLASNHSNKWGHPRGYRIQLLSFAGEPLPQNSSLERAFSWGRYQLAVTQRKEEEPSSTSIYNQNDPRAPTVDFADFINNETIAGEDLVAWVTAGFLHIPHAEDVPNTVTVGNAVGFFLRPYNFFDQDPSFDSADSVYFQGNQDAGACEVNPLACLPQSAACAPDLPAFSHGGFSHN

BALB/c mice [5] = assay: CXCL1/KC induced cremaster inflammation, intravital microscopy; assay type: in vivo, mouse; conditions: 6 mg.kg^−1 oral, 1 hour prior to rCXCL1
Protocol: BALB/c mice were anesthetized and 500 ng of murine rCXCL1 in 0.2 ml of saline was administered locally by s.c. injection beneath the right scrotal skin using a 30-G needle, 2 hours before exteriorization. The left cremaster was then prepared for intravital microscopy, as previously described. Briefly, an incision was made in the scrotal skin to expose the left cremaster muscle, which was then carefully removed from the associated fascia. A lengthwise incision was made on the ventral surface of the cremaster muscle using a cautery. The testicle and the epididymis were separated from the underlying muscle and were moved into the abdominal cavity. The muscle was then spread out over an optically clear viewing pedestal and was secured along the edges with a 4–0 suture. […] A video camera (CDD; Sony) was used to project the images onto a monitor, and the images were recorded for playback analysis using a conventional DVD. […] The number of rolling and adherent leukocytes was determined offline during video playback analysis. […] The flux of rolling cells was measured as the number of rolling cells passing by a given point in the venule per minute. A leukocyte was considered to be adherent if it remained stationary for at least 30 s, and total leukocyte adhesion was quantified as the number of adherent cells within a 100 μm length of venule.

[6] = Pharmacokinetics in Wistar rats; assay type: in vivo; conditions: rat; for Cmax: read-out: Apparent concentration at curve maximum Cmax
Protocol: (§1) Studies were performed by ICP Firefly, Pharmalegacy and Sundia with local ethics approval. […] Plasma was analyzed for PXS-4728A by high-performance liquid chromatography-mass spectrometry/mass spectrometry. Basic pharmacokinetic parameters were estimated using PK Solutions software (Summit Research Services).

carbonic anhydrase II = carbonic anhydrase II (Homo sapiens, UniProt P00918); assay: Carbonic anhydrase II activity; assay type: biochemical
Plasma stability [7] = assay type: in vitro ADME; conditions: rat plasma, 1 hour incubation
[8] = Pharmacokinetics in BALB/c mice; assay type: in vivo; conditions: mouse; for Cmax: read-out: Apparent concentration at curve maximum Cmax
Protocol: as §1

[9] = 24 hours, PXS-4728A 6 mg.kg^−1, dexamethasone 10 mg.kg^−1, oral 1 hour prior to infection
[10] = 4 mg/kg pre-treatment, 6 mg/kg at 6 hours

CC(C)(C)NC(=O)c1ccc(OC/C(=C/F)CN)cc1 [PXS-4728A]
Neutrophil migration into the airway spaces (BALF) (BALB/c mice [1]; [9]): significantly dampened | Total leukocyte migration into the airway spaces (BALF) (BALB/c mice [1]; [9]): significantly dampened | Log 10-CFU in the lung (bacterial load), average (BALB/c mice [1]; 24 hours, PXS-4728A 6 mg.kg^−1, dexamethasone 10 mg.kg^−1, vehicle 7.59): 8.27 LOG 10-CFU | Survival (BALB/c mice [1]; treated 1 hour prior to infection and daily thereafter): not compromised | Influx of neutrophils in BALF (BALB/c mice [2]; PXS-4728A 0.2 or 2 mg.kg^−1, dexamethasone 10 mg.kg^−1, oral 1 hour prior): dampened migration significantly; also recorded: concentration-dependently reduced | Influx of total cells in BALF (BALB/c mice [2]; PXS-4728A 0.2 or 2 mg.kg^−1 oral 1 hour prior): concentration-dependently reduced | Circulating neutrophils (Swiss mice): had no effect | Total cells in blood (Swiss mice): had no effect | Influx of neutrophils in BALF (Swiss mice; [10]): reduced | Influx of total cells in BALF (Swiss mice; [10]): reduced | Plasma stability, remaining (Plasma stability [3]): > 90% | Cell toxicity (HepG2 cells): does not induce cell toxicity | IC50 [4]: < 10 nM | CXCL1/KC increased number of adhering leukocytes (BALB/c mice [5]): abolished | CXCL1/KC increased number of rolling leukocytes (BALB/c mice [5]): abolished | Cmax ([6]; Wistar, plasma, intravenous 3 mg.kg^−1): 4210 ng/mL | clearance ([6]; Wistar, plasma, intravenous 3 mg.kg^−1, read-out: Clearance CL): 23 mL/min/kg | Cmax ([6]; Wistar, plasma, oral 6 mg.kg^−1): 720 ng/mL | Tmax ([6]; Wistar, plasma, oral 6 mg.kg^−1, read-out: Time of maximal concentration Tmax): 49.8 min | half-life ([6]; Wistar, plasma, iv, 3 mg/kg, intravenous 3 mg.kg^−1, read-out: Apparent half-life, t1/2 (converted)): ~60 min | bioavailability ([6]; Wistar, plasma, oral, 6 mg.kg^−1, rat, oral 6 mg.kg^−1 / i.v. 3 mg.kg^−1): > 55% | Clearance CL ([6]; oral 6 mg.kg^−1): 45 mL·kg/min | Bioavailability (%) ([6]; oral 6 mg.kg^−1 / i.v. 3 mg.kg^−1): 55% | Activity for carbonic anhydrase II (carbonic anhydrase II): removing all activity | Plasma stability, remaining (Plasma stability [7]): > 90% | bioavailability ([8]; BALB/c, plasma, oral, 10 mg.kg^−1, mouse, oral 10 mg.kg^−1 / i.v. 5 mg.kg^−1): > 90% | Cmax ([8]; BALB/c, plasma, intravenous 5 mg.kg^−1): 1600 ng/mL | half-life ([8]; BALB/c, plasma, intravenous 5 mg.kg^−1, read-out: Apparent half-life, t1/2 (converted)): 36 min | clearance ([8]; BALB/c, plasma, intravenous 5 mg.kg^−1, read-out: Clearance CL): 80 mL/min/kg | Cmax ([8]; BALB/c, plasma, oral 10 mg.kg^−1): 1380 ng/mL | Tmax ([8]; BALB/c, plasma, oral 10 mg.kg^−1, read-out: Time of maximal concentration Tmax): 15 min | Clearance CL ([8]; oral 10 mg.kg^−1): 98 mL·kg/min | Bioavailability (%) ([8]; oral 10 mg.kg^−1 / i.v. 5 mg.kg^−1): 92%
